Assay results as given in patent US6670364B2, “Antagonists of MCP-1 function and methods of use thereof” (Telik, Inc., priority 2001, dated 2003).

Assays:
ICR male mice = assay: Thioglycollate-induced inflammation model (Example 17); assay type: in vivo, mouse; settings: peritoneal cavity 72 h after thioglycollate; 5 mg/kg, subcutaneous
Experimental: 3% Brewer's thioglycollate broth (Difco, Detroit, Mich.) was injected into the peritoneal cavity of ICR male mice, followed by subcutaneous administration of the test compound. The same dose of test compound was again administered immediately after the broth injection and 3 h later. After 72 h, the number of total elicited cells and MOMA2-positive cells in the peritoneal cavity was analyzed using an EPICS XL Beckman Coulter.

male Wistar rats [1] = assay: Anti-Thy-1 antibody-induced nephritis model, s.c. (Example 19); assay type: in vivo; settings: rat; for ED-1 positive cells/glomeruli (mean ± SE): day 7
Experimental: The efficacy of the compounds of the present invention was also evaluated in an animal model of nephritis. This model very closely simulates the conditions found in human mesangial proliferative glomerulonephritis.
Anti-Thy-1 nephritis was induced by intravenous injection of anti-Thy-1-antibody to male Wistar rats. The test compound was subcutaneously administered 2 h before, immediately after, and 5 h after the anti-Thy-1 antibody treatment, and then twice a day for the following 2 days. Anti-MCP-1 antibody was intraperitoneally injected once a day for 3 days. Seven days after the anti-Thy-1 antibody treatment, the rats were sacrificed. The kidneys were perfused with 10% formaldehyde in PBS, surgically removed, and immersed in 10% formaldehyde. The kidneys were then embedded in paraffin for glomerular histopathology or in OCT compound (Miles Inc., Elkhart, Ind.) in liquid nitrogen after immersion in 30% sucrose overnight. Immunohistochemical staining was performed with a mouse anti-rat ED-1 monoclonal antibody. Briefly, 5 μm renal sections were prepared and endogenous peroxidase blocked with 0.3% hydrogen peroxide. The sections were then blocked with Protein Block (DAKO, Japan) and stained with anti-ED-1 antibody for 45 min. The ED-1 antigen was visualized by peroxidase-labeled anti-mouse IgG and diaminobenzidine. The amount of urinary protein was determined with the DC protein assay kit (Bio-Rad, Hercules, Calif.). The effect of a representative test compound on the level of urinary protein excretion and the infiltration of ED-1 positive cells into the glomeruli is shown in Table 10.

apoE-deficient mice = assay: Apolipoprotein E-deficient mouse model of atherosclerosis (Example 20); assay type: in vivo
Experimental: Apolipoprotein E (apoE) is a component of several plasma lipoproteins, including chylomicrons, VLDL, and HDL. Receptor-mediated catabolism of these lipoprotein particles is mediated through the interaction of apoE with the LDL receptor (LDLR) or with LDLR-related protein (LRP). […] The efficacy of the compounds of the present invention was also evaluated using this animal model.
Male, 4 week-old apoE-deficient mice were fed on high-fat diet (15% fat, 1.25% cholesterol). The test compound was administered as food admixture for 8 weeks. At 12 week-old, the mice were fasted for 4 hours and then sacrificed under ether anesthesia. Blood was collected in the presence of heparin, and the hearts were perfused in situ with PBS (pH 7.4), followed by 4% paraformaldehyde for 5 min.
To determine cross-sectional lesion areas, the hearts were embedded in OCT compound and sectioned at 10 μm using cryostat. The sections were stained with oil red O. Each section of the aortic valve was evaluated for oil red O staining by capturing images directly from a RGB camera attached to a light microscope; image analysis was performed with the IPAP-WIN software (Sumika Tekuno, Japan). Five sections were examined for each animal, and the sum of the lesion areas was calculated and expressed as the percent of the total cross-sectional wall area. Total cholesterol was determined with a Determiner assay kit (Kyowa medex, Japan).

hMCP-1 [2] = target: T1, hMCP-1 (Homo sapiens, UniProt P13500); assay: Inhibition of MCP-1-induced chemotaxis (96-well chamber, Example 16); assay type: cell-based; settings: THP-1 cells, 12.5 nM hMCP-1, 2 h, 96-well microchemotaxis chamber
Experimental: A 96-well microchemotaxis chamber with a 5 μm-pore size, PVP-coated polycarbonate filter membrane (Neuro Probe Inc., Cabin John, Md.) was used for testing. Compounds were prepared as 10 mM stock solution in DMSO. THP-1 cells (2×10^6 cells/mL) were labeled with 5 μM Calcein AM containing 0.1% F127 (Molecular Probe, Eugene, Oreg.) at 37° C. for 30 min, and then pretreated with compound at room temperature for an additional 30 min. […] The filter membrane was placed over the lower chamber, followed by a silicon gasket and the upper chamber. The pretreated THP-1 cells (4×10^5 cells/50 μL of RPMI1640 medium per well) were added to the upper chamber and incubated in 5% CO2 at 37° C. for 2 h. The migrated cells were determined with a fluorescent plate reader (LJL BioSystems, Sunnyvale, Calif.).
Target sequence in this assay (P13500 24-99): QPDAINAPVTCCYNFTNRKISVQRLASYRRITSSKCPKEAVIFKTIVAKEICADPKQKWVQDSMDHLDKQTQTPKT
Target sequence in this assay (P41597 whole entry partner): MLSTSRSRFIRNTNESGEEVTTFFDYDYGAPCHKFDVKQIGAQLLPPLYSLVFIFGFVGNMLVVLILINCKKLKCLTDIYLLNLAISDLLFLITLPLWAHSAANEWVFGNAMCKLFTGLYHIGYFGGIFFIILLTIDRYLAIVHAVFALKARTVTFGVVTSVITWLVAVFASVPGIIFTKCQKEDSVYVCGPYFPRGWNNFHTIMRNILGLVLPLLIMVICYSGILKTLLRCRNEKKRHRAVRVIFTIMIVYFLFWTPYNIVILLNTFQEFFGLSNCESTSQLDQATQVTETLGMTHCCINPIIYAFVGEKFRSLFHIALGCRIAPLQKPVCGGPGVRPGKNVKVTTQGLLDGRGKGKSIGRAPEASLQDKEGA

male Wistar rats [3] = assay: Anti-Thy-1 antibody induced nephritis model, per os (Example 26); assay type: in vivo, rat
Experimental: Anti-Thy-1 nephritis was induced by intravenous injection of anti-Thy-1-antibody to male Wistar rats. The test compound was per os administered 2 h before, immediately after, and 5 h after the anti-Thy-1 antibody treatment, and then twice a day for the following 2 days. Seven days after the anti-Thy-1 antibody treatment, the rats were sacrificed. The amount of urinary protein was determined with the DC protein assay kit (Bio-Rad, Hercules, Calif.).

hMCP-1 [4] = target: T1, hMCP-1; assay: Inhibition of MCP-1-induced chemotaxis (48-well chamber, Example 21); assay type: cell-based; parameters: purchased PeproTech; settings: THP-1 cells, 2.5 nM hMCP-1, 48-well chamber, 2 hr
Experimental: A 48-well microchemotaxis chamber with a 5 μm-pore size, PVP-coated polycarbonate filter membrane (Neuro Probe Inc., Cabin John, Md.) was used for testing. Compounds were prepared as 10 mM stock solution in DMSO. THP-1 cells were washed with RPMI 1640 medium supplemented with 0.5% BSA and 25 mM HEPES, pH 7.4, and suspended at a density of 4×10^6 cells/mL in the same medium. A 150 μL aliquot of this suspension was treated with an equal volume of test compound solution and the mixture incubated at 37° C. for 15 min. The lower chamber was loaded with 26 μL of a 2.5 nM solution of hMCP-1 (PeproTech) in medium. The filter membrane was placed over the lower chamber, followed by a silicon rubber gasket and the upper chamber. A 50 μL aliquot of the THP-1 cell suspension containing the test compound was added to the upper chamber and the assembly incubated in a 5% CO2 atmosphere at 37+ C. for 2 hr. The chamber was then disassembled and the cells remaining on the upper surface of the filter were scrapped off with a rubber scrapper. The filter was fixed with methanol, stained with Diff-Quik solution, and mounted on a slide glass. The cells that had migrated across the filter onto the lower surface were then counted by microscopic observation.
Target sequence in this assay (P13500 24-99): as the sequence (P13500 24-99) above

male Lewis rats = assay: Adjuvant arthritis model in rat (Example 22); assay type: in vivo; settings: 10 mg/kg p.o. once a day
Experimental: Adjuvant arthritis was induced in male Lewis rats as follows. Complete Freund's adjuvant (CFA) was mixed with PBS and 0.1 ml of the resulting emulsion was injected subcutaneously into the foot pad of the right hind paw (day=0). The test compound was administered p.o. at day 0 and then once a day for 26 days. Paw swelling was measured by the increased thickness of the foot pad.

female Lewis rats [5] = assay: Collagen-induced arthritis model in rat, i.p. (Example 23); assay type: in vivo
Experimental: (§1) Collagen-induced arthritis was induced in female Lewis rats as follows. Rats were injected subcutaneously with the emulsion of bovine collagen type 11 (3.3 mg/kg at day 0 and 1.67 mg/kg at day 7) and complete Freund's adjuvant (CFA) at the base of the tail at day 0 and immunized additionally at day 7. The test compounds were administered i.p. at day 0 and then once a day for 18 days or p.o. (methotrexate) at day 0 and then 3 times a week until day 18. Paw swelling was measured by the increased volume of the legs using a plethysmometer.

female Lewis rats [6] = assay: Collagen-induced arthritis model in rat, p.o. (Example 24); assay type: in vivo; settings: 1 mg/kg p.o. 3 times a week until day 21 (positive control)
Experimental: as §1, with “p.o.” for “i.p.”, “twice” for “once”, “21” for “18”, “or” for “or p.o. (methotrexate) at day 0 and then”, “21 was also administered p.o. from day 13 to day 21 in another group.” for “18.”

Cc1nn(C)c2ncc(C(=O)NC(=O)Nc3ccc(F)c(C(F)(F)F)c3)cc12 [Compound 11, (1,3-Dimethylpyrazolo[5,4-b]pyridin-5-yl)-N-({[4-fluoro-3-(trifluoromethyl)phenyl]amino}carbonyl)carboxamide]
MOMA2-positive Cells (× 10^6) (ICR male mice): 14.3 ± 1.2 × 10^6
Total Cells (× 10^6) (ICR male mice): 19.7 ± 1.6 × 10^6
Urinary Protein (male Wistar rats [1]; 0.1 mg/kg s.c.): 182.2 ± 28.0 mg/day
ED-1 positive cells/glomeruli (mean ± SE) (male Wistar rats [1]; 0.1 mg/kg s.c.): 5.3 ± 0.7 cells/glomeruli
Urinary Protein (male Wistar rats [1]; 2 mg/kg s.c.): 117.4 ± 26.3 mg/day
ED-1 positive cells/glomeruli (mean ± SE) (male Wistar rats [1]; 2 mg/kg s.c.): 2.3 ± 0.6 cells/glomeruli
% Atherosclerotic Lesion (mean ± SD) (apoE-deficient mice; 10 mg/kg as food admixture for 8 weeks, high-fat diet, aortic valve sections, oil red O): 18.72 ± 5.27 %
body weight vs control (apoE-deficient mice; apoE-deficient mice, 8 weeks treatment, data not shown): no significant differences
percent of atherosclerotic lesion area (in words) (apoE-deficient mice; vs control group, statistically significant): reduced

Cc1nn(C)c2ncc(C(=O)NC(=O)Nc3ccc(Cl)c(Cl)c3)c(Cl)c12 [Compound 37, N-{[(3,4-dichlorophenyl)amino]carbonyl}(4-chloro-1,3-Dimethylpyrazolo[5,4-b]pyridin-5-yl)carboxamide]
IC50 (hMCP-1 [2]): 12.7 µM

Cc1nn(C)c2ncc(C(=O)NC(=O)Nc3ccc(F)c(C(F)(F)F)c3)c(N3CCN(C)CC3)c12.Cl [Compound 85, [1,3-Dimethyl-4-(4-methylpiperazinyl)pyrazolo[5,4-b]pyridin-5-yl]-N-({[4-fluoro-3-(trifluoromethyl)phenyl]amino}carbonyl)carboxamide hydrochloride]
Urinary Protein (mg/mg creatinine) (male Wistar rats [3]; 0.1 mg/kg per os): 33.4 ± 5.1 mg/mg creatinine
Urinary Protein (mg/mg creatinine) (male Wistar rats [3]; 1 mg/kg per os): 32.4 ± 5.9 mg/mg creatinine
Urinary Protein (mg/mg creatinine) (male Wistar rats [3]; 10 mg/kg per os): 23.5 ± 7.2 mg/mg creatinine
IC50 (hMCP-1 [4]): 0.09 µM
Percent Swelling (foot pad) (male Lewis rats; day 11 after immunization): 39%
Percent Swelling (foot pad) (male Lewis rats; day 14 after immunization): 40%
Percent Swelling (foot pad) (male Lewis rats; day 17 after immunization): 34%
Percent Swelling (foot pad) (male Lewis rats; day 21 after immunization): 30%
Percent Swelling (foot pad) (male Lewis rats; day 22 after immunization): 26%
Percent Swelling (foot pad) (male Lewis rats; day 26 after immunization): 27%

Cc1nn(C)c2ncc(C(=O)NC(=O)Nc3ccc(C(=O)N4CCOCC4)c(Cl)c3)cc12 [Compound 141]
Percent Swelling day 18 (female Lewis rats [5]; 10 mg/kg i.p. once a day for 18 days): 12.3 ± 1.5 %

CN(Cc1cnc2nc(N)nc(N)c2n1)c1ccc(C(=O)N[C@@H](CCC(=O)O)C(=O)O)cc1 [methotrexate, reference compound]
Percent Swelling day 18 (female Lewis rats [5]; 1 mg/kg p.o. 3 times a week until day 18): 8.9 ± 1.2 %
Percent Swelling day 14 (female Lewis rats [6]): −0.4 ± 1.1 %
Percent Swelling day 21 (female Lewis rats [6]): −0.7 ± 1.0 %
